Assay results reported in patent publication US20040254241A1, “Aryl sulfamate derivatives” (priority 2004, published 2004).

Molecular target: T1, recombinant human estrone sulfatase (Homo sapiens, UniProt P08842)
T1 construct: made in house; host or cells: Chinese Hamster Ovary (CHO) cells
T1 sequence (P08842 22-583): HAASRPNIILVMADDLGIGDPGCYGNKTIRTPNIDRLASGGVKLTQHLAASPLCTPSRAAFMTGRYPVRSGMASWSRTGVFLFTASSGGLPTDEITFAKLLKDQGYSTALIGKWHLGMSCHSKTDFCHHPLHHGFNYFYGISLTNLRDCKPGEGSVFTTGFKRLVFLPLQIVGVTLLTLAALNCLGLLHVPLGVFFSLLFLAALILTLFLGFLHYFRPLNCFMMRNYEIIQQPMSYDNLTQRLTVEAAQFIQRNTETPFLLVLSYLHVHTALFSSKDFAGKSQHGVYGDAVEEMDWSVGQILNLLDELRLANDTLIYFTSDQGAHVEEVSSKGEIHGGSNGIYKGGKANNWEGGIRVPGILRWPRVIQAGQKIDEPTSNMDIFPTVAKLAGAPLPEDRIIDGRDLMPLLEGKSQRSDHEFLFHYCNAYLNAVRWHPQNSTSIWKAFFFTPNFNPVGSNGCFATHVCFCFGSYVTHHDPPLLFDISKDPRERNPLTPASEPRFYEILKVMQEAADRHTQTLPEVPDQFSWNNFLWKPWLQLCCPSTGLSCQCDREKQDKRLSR
Experiment: Test for inhibition of estrone sulfatase (steroid sulfatase)
Format: biochemical
Settings: 4-methylumbelliferyl sulfate 0.3 mmol/L, phosphate buffer pH 7.5, 37° C., 1 hour; enzyme expressed in CHO cells, partially purified; read-out: Inhibitory activity against steroid sulfatase IC50
Protocol: Test Example 1: Test for Inhibition of Estrone Sulfatase (Steroid Sulfatase)
4-Methylumbelliferyl sulfate (final concentration 0.3 mmol/L), recombinant human estrone sulfatase (7.8 ng/well), and each solution of the test compound having each test concentrations (test compound was dissolved in 0.001 mL of DMSO) were added to a phosphate buffer (pH 7.5) (final volume 0.1 mL) containing 0.28 mol/L sucrose and 0.04 mol/L nicotinamide. An enzyme reaction was conducted at 37° C. for 1 hour. The human estrone sulfatase gene was introduced into Chinese Hamster Ovary (CHO) cells, and the recombinant human estrone sulfatase was expressed, then it was used after partial purification. After completing the enzyme reaction, 2 mol/L glycine-sodium hydroxide solution (pH 10.3) (0.13 mL) was added and stirred. Using a fluorescent plate reader (Cyto Fluor II), the fluorescent strength of the generated 4-methylumbelliferone was measured. The measurements were conducted in duplicate at the same time. The fluctuations within the assay were within 10%. An enzyme reaction without the presence of a test compound was conducted at the same time. The inhibitory activity against estrone sulfatase for each concentration of the test compounds was calculated using the following equation.
A: Amount of 4-methylumbelliferone when test compound is present
B: Amount of 4-methylumbelliferone when test compound is not present
Inhibitory activity against estrone sulfatase [formula]
The inhibitory activity against estrone sulfatase of the aryl sulfamate derivative can be expressed as the concentration (IC50) of aryl sulfamate derivative at which the estrone sulfatase activity in the presence of the aryl sulfamate derivative is half of that when no test compound is added.

Structure (SMILES)	IC50
CCCCCCCCCNC(=O)/C=C/c1ccc(OS(N)(=O)=O)cc1 [Compound 1]	73 nM
CCCCCCCCCNC(=O)/C(C)=C/c1ccc(OS(N)(=O)=O)cc1 [Compound 3]	61 nM
CCCCCCCCCNC(=O)/C(C#N)=C(\C)c1ccc(OS(N)(=O)=O)cc1 [Compound 13]	12 nM
CCCCCCCCCNC(=O)/C(Br)=C/c1ccc(OS(N)(=O)=O)cc1 [Compound 42]	54 nM
CCCCCCCCCNC(=O)/C(I)=C/c1ccc(OS(N)(=O)=O)cc1 [Compound 43]	59 nM
CCCCCCCCCNC(=O)/C(C#N)=C(\C)c1ccc(OS(N)(=O)=O)c(Cl)c1 [Compound 55]	38 nM
CCCCCCCCCNC(=O)/C(C#N)=C(\C)c1ccc(OS(N)(=O)=O)c(Br)c1 [Compound 56]	41 nM
